# “And” between values parts separate entries of the source, which are not always exact repeats. Equal entries are not always repeated.
# Test system: DMS 114 tumor spheroids, viability % test/control
# Experiment: Anticancer human tumor DMS 114 cell line growth inhibition;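 also: spheroids exposed to compounds for 7 days before read-out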;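 as to viability, T/C: luminescence used as a proxy for viable cells; 100% = DMSO vehicle control viability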
# Conditions: spheroids with HUVEC and MSC; for viability, T/C: stronger effect = lower value
# Description: Multicellular complex tumor spheroid response to DNA repair inhibitors in combination with DNA-damaging drugs
# This study explores the anticancer activities of DNA-damaging drugs and inhibitors of DNA damage repair, both as single agents and in combinations. Complex tumor spheroids comprised of malignant cells, endothelial cells and mesenchymal stem cells served as an in vitro model for human solid tumors. This model system incorporates physiologically relevant features and patient-derived or established malignant cell lines with clinically relevant genetic alterations from many tumor types. Twenty-six patient-derived or established malignant cell lines were evaluated representing sarcoma, melanoma, small cell lung cancer (SCLC), non-small cell lung cancer (NSCLC), as well as bladder, ovarian and pancreatic cancers. The concentration ranges selected for each drug and investigational agent were based upon clinically achievable concentrations if the clinical Cmax of the agent was known.
# Compounds. The drugs and compounds olaparib (NSC753686), talazoparib (NSC767125), berzosertib (NSC777718), elimusertib (NSC800525), nedisertib (NSC802822), VX-984 (NSC792969), AZD-1390 (NSC803789), temozolomide (NSC362856), topotecan (NSC609699), trabectedin (NSC813783), staurosporine (NSC755774), and gemcitabine (NSC613327) were obtained from the National Cancer Institute (NCI) Developmental Therapeutics Program Chemical Repository. The FDA-approved anticancer drug set is available from the Developmental Therapeutics Program at https://dtp.cancer.gov/organization/dscb/obtaining/available_plates.htm. […] The stock solutions were prepared in dimethyl sulfoxide (DMSO, Sigma-Aldrich, St. Louis, MO, cat. D2650) at 400-fold the tested concentration and stored at -70 degrees C. Prior to their use, the stock solutions were diluted in fresh medium and the final DMSO concentration in the assay was 0.25% (v/v). All drugs and investigational agents were tested over a range starting from a high concentration at or near the clinical Cmax and decreasing in half-log increments. If the clinical Cmax for an agent had not been determined, the highest concentration tested was 10 microM.
# Cell Lines. The patient-derived cancer cell (PDC) lines: 156681-154-R-J1-PDC, 283228-195-R-J1-PDC, 287954-098-R-J1-PDC, 292921-168-R-J2-PDC, 349418-098-R-PDC, 425362-245-T-J1-PDC, 556581-035-R-J1-PDC, and BL0293-F563-PDC were received from the NCI Patient-Derived Models Repository (PDMR, https://pdmr.cancer.gov). The established cell lines HS-SY-2 (RRID:CVCL_8719), MPNST, and SYO-1 (RRID:CVCL_7146) were obtained from the Sloan Kettering Institute. The alveolar soft parts sarcoma cell line ASPS-1 (RRID:CVCL_S738) was established at the NCI and grown from internal seed stocks. The following established cell lines were purchased from the American Type Culture Collection (ATCC, Manassas, VA): G-401 (ATCC, cat. CRL-1441, RRID:CVCL_0270), SW982 (ATCC, cat. HTB-93, RRID:CVCL_1734), VA-ES-BJ (ATCC, cat. CRL-2138, RRID:CVCL_1785), NCI-H719 (ATCC, cat. CRL-5837, RRID:CVCL_1582), NCI-H196 (ATCC, cat. CRL-5823, RRID:CVCL_1509), NCI-H841 (ATCC, cat. CRL-5845, RRID:CVCL_1595), NCI-H1618 (ATCC, cat. CRL-5879, RRID:CVCL_1480), NCI-H1876 (ATCC, cat. CRL-5902, RRID:CVCL_1503), DMS 114 (ATCC, cat. CRL-2066; RRID:CVCL_1174), NCI-H211 (ATCC, cat. CRL-5824; RRID:CVCL_1529), and SW 1271 (ATCC, cat. CRL-2177, RRID:CVCL_1716). The small cell lung cancer cell line COR-L88 was purchased from Sigma-Aldrich (cat. 92031917-1VL, RRID:CVCL_1141). The non-small cell lung cancer cell lines NCI-H226 (RRID:CVCL_1544) and NCI-H322M (RRID:CVCL_1557) were established at the NCI and grown from internal seed stocks. Pooled donor human umbilical vein endothelial cells (HUVEC, Lonza, cat. CC-2519) and human mesenchymal stem cells (hMSC, Lonza, cat. PT-2501) were purchased from Lonza (Walkersville, MD).
# Cell Culture. All cells were maintained in an incubator at 37 degrees C and 5% CO2 with 95% humidity. […]
compound,measurement,setting,value
Cn1ncnc1[C@H]1c2n[nH]c(=O)c3cc(F)cc(c23)N[C@@H]1c1ccc(F)cc1 + COc1cc2c(cc1O)CCNC21CSC2c3c(OC(C)=O)c(C)c4c(c3C(COC1=O)N1C(O)C3Cc5cc(C)c(OC)c(O)c5C(C21)N3C)OCO4,IC50,"curve of first compound, second compound 30 pM",0.428 µM
same,IC50,"curve of first compound, second compound 94.9 pM",0.104 µM
same,IC50,"curve of first compound, second compound 0.0003 µM",< 0.00949 µM
same,IC50,"curve of first compound, second compound 0.000949 µM",< 0.00949 µM
same,IC50,"curve of first compound, second compound 0.003 µM",< 0.00949 µM
same,"viability, T/C","second compound 30 pM, first compound 0.00949 µM",91.6%
same,"viability, T/C","second compound 30 pM, first compound 0.03 µM",91%
same,"viability, T/C","second compound 30 pM, first compound 0.0949 µM",78.4%
same,"viability, T/C","second compound 30 pM, first compound 0.3 µM",59.6%
same,"viability, T/C","second compound 30 pM, first compound 0.949 µM",29.9%
same,"viability, T/C","second compound 30 pM, first compound 3 µM",10.4%
same,"viability, T/C","second compound 94.9 pM, first compound 0.00949 µM",79.2%
same,"viability, T/C","second compound 94.9 pM, first compound 0.03 µM",63.3%
same,"viability, T/C","second compound 94.9 pM, first compound 0.0949 µM",54.6%
same,"viability, T/C","second compound 94.9 pM, first compound 0.3 µM",33.3%
same,"viability, T/C","second compound 94.9 pM, first compound 0.949 µM",16.5%
same,"viability, T/C","second compound 94.9 pM, first compound 3 µM",7.38%
same,"viability, T/C","second compound 0.0003 µM, first compound 0.00949 µM",21.8%
same,"viability, T/C","second compound 0.0003 µM, first compound 0.03 µM",20.3%
same,"viability, T/C","second compound 0.0003 µM, first compound 0.0949 µM",17.8%
same,"viability, T/C","second compound 0.0003 µM, first compound 0.3 µM",16.6%
same,"viability, T/C","second compound 0.0003 µM, first compound 0.949 µM",10.7%
same,"viability, T/C","second compound 0.0003 µM, first compound 3 µM",5.92%
same,"viability, T/C","second compound 0.000949 µM, first compound 0.00949 µM",2.67%
same,"viability, T/C","second compound 0.000949 µM, first compound 0.03 µM",3.65%
same,"viability, T/C","second compound 0.000949 µM, first compound 0.0949 µM",3.4%
same,"viability, T/C","second compound 0.000949 µM, first compound 0.3 µM",2.16%
same,"viability, T/C","second compound 0.000949 µM, first compound 0.949 µM",1.41%
same,"viability, T/C","second compound 0.000949 µM, first compound 3 µM",0.78%
same,"viability, T/C","second compound 0.003 µM, first compound 0.00949 µM",0.32%
same,"viability, T/C","second compound 0.003 µM, first compound 0.03 µM",0.33%
same,"viability, T/C","second compound 0.003 µM, first compound 0.0949 µM",0.3%
same,"viability, T/C","second compound 0.003 µM, first compound 0.3 µM",0.32%
same,"viability, T/C","second compound 0.003 µM, first compound 0.949 µM",0.28%
same,"viability, T/C","second compound 0.003 µM, first compound 3 µM",0.49%
CC1COCCN1c1cc(-c2ccnn2C)c2ccnc(-c3ccn[nH]3)c2n1 (configuration not stated),"viability, T/C",compound 0.0316 µM,53.3% and 52% and 78.1%
same,"viability, T/C",compound 0.1 µM,33.3% and 43.1% and 47.9%
same,"viability, T/C",compound 0.316 µM,19% and 25.5% and 22.5%
same,"viability, T/C",compound 1 µM,12% and 12.8% and 12.6%
same,"viability, T/C",compound 3.16 µM,9.85% and 10.8% and 9.54%
same,"viability, T/C",compound 10 µM,10.2% and 11.9% and 8.81%
same,IC50,curve of compound,0.0382 µM and 0.0407 µM and 0.0922 µM

# From PubChem BioAssay AID1845202 (Molecular Pharmacology Branch, DTP, NCI, 2023)
